Data reported in publication PMC11784839, “Monoaminergic neurotransmitters are bimodal effectors of tau aggregation” (Science Advances, 2025).

Molecular target: tau (Homo sapiens, UniProt P10636)
Experiment: MCE Phenols Library screening, tau biosensor cell seeding assay (AvZ)
Assay type: cell-based
Details: for Z repl 1 / Z Repl 2: Z score; for Z repl 1 / raw data 1: replicate 1; for Z Repl 2 / raw data 2: replicate 2; for AvZ (average z score of seeding, SDs from the mean level of seeding): 10 μM phenol in cell cultures, AD brain homogenate preincubated 16 hours, two biological replicates, positive = catalyzes seeding, negative = inhibits
[1] = average Z score of the two replicates, MCE Phenols Library screen
[2] = average Z score of two replicates, Phenols Library screen
[3] = average puncta of the two replicates
[4] = average Z score of the two replicates, tau seeding

Sequence of tau (P10636 623-695 limits assumed): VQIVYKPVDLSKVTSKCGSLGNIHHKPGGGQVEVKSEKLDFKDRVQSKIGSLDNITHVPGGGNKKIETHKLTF

O=C(OC[C@H]1O[C@@H](OC(=O)c2cc(O)c(O)c(OC(=O)c3cc(O)c(O)c(O)c3)c2)[C@H](OC(=O)c2cc(O)c(O)c(OC(=O)c3cc(O)c(O)c(O)c3)c2)[C@@H](OC(=O)c2cc(O)c(O)c(OC(=O)c3cc(O)c(O)c(O)c3)c2)[C@@H]1OC(=O)c1cc(O)c(O)c(OC(=O)c2cc(O)c(O)c(O)c2)c1)c1cc(O)c(O)c(OC(=O)c2cc(O)c(O)c(O)c2)c1 [Tannic acid]
Z repl 1: -2.109
Z Repl 2: -1.136
av Z [1]: -1.623
av puncta (average of raw data 1 and 2): 829.805
raw data 1 (puncta): 1030.3
raw data 2 (puncta): 629.309

COc1cc(O)c2c(=O)cc(-c3ccccc3)oc2c1 [Tectochrysin]
Z repl 1: 0.481
Z Repl 2: -0.371
av Z [2]: 0.055
av puncta (average of raw data 1 and 2): 20458.8
raw data 1 (puncta): 32119.1
raw data 2 (puncta): 8798.38

COc1c(O)cc2occ(-c3ccc(O)cc3)c(=O)c2c1O [Tectorigenin]
Z repl 1: -0.071
Z Repl 2: -0.055
av Z [2]: -0.063
av puncta (average of raw data 1 and 2): 18839.4
raw data 1 (puncta): 25501.8
raw data 2 (puncta): 12177

COc1cc(/C=C/C(=O)O[C@H]2[C@H](O)[C@@H](CO)O[C@@]2(CO)O[C@H]2O[C@H](COC(=O)c3ccc(O)cc3)[C@@H](O)[C@H](O)[C@H]2O)cc(OC)c1O [Tenuifoliside B]
Z repl 1: -0.53
Z Repl 2: -0.01
av Z [1]: -0.27
av puncta [3]: 16324
raw data 1 (raw puncta): 19990.7
raw data 2 (raw puncta): 12657.2

O=C(O)Cc1cc(I)c(Oc2cc(I)c(O)c(I)c2)c(I)c1 [Tetrac]
Z repl 1: 0.158
Z Repl 2: -0.425
av Z [2]: -0.133
av puncta (average of raw data 1 and 2): 18236.7
raw data 1 (puncta): 28241.9
raw data 2 (puncta): 8231.59

CN(C)[C@@H]1C(O)=C(C(N)=O)C(=O)[C@@]2(O)C(O)=C3C(=O)c4c(O)cccc4[C@@](C)(O)[C@H]3C[C@@H]12.Cl [Tetracycline (hydrochloride)]
Z repl 1: 0.657
Z Repl 2: 0.47
av Z [4]: 0.563
av puncta (average of raw data 1 and 2): 26010.3
raw data 1 (puncta): 34234.2
raw data 2 (puncta): 17786.4

COc1cc(CCC(=O)CC(=O)CCc2ccc(O)c(OC)c2)ccc1O [Tetrahydrocurcumin]
Z repl 1: 0.298
Z Repl 2: -0.72
av Z [1]: -0.211
av puncta [3]: 17498
raw data 1 (raw puncta): 29921.4
raw data 2 (raw puncta): 5074.48

COc1ccc(/C=C/C(=O)C(C)(C)C(=O)/C=C/c2ccc(OC)c(OC)c2)cc1OC [Tetramethylcurcumin]
Z repl 1: -1.086
Z Repl 2: -0.943
av Z [1]: -1.014
av puncta (average of raw data 1 and 2): 8003.14
raw data 1 (puncta): 13309.5
raw data 2 (puncta): 2696.76

O=C(O[C@@H]1Cc2c(O)cc(O)cc2O[C@@H]1c1cc(O)c(O)c2c(=O)c(O)cc([C@H]3Oc4cc(O)cc(O)c4C[C@H]3O)cc12)c1cc(O)c(O)c(O)c1 [Theaflavin-3'-gallate]
Z repl 1: -2.15
Z Repl 2: -1.186
av puncta (average of raw data 1 and 2): 320.554
raw data 1 (puncta): 542.499
raw data 2 (puncta): 98.608

O=C(O[C@@H]1Cc2c(O)cc(O)cc2O[C@@H]1c1cc(O)c(=O)c2c(O)c(O)cc([C@H]3Oc4cc(O)cc(O)c4C[C@H]3O)c2c1)c1cc(O)c(O)c(O)c1 [Theaflavin-3-gallate]
Z repl 1: -2.035
Z Repl 2: -1.192
av Z [1]: -1.614
av puncta (average of raw data 1 and 2): 972.721
raw data 1 (puncta): 1914.49
raw data 2 (puncta): 30.952

O=c1c(O)cc([C@H]2Oc3cc(O)cc(O)c3C[C@H]2O)cc2c([C@H]3Oc4cc(O)cc(O)c4C[C@H]3O)cc(O)c(O)c12 [Theaflavin]
Z repl 1: -0.67
av Z [1]: -0.921
av puncta (average of raw data 1 and 2): 9279.59
raw data 1 (puncta): 18310.3
raw data 2 (puncta): 248.899

O=C(O[C@@H]1[C@@H](O)[C@H](Oc2cc(O)c(C(=O)CCc3ccccc3)c(O)c2)O[C@@H]2COC(=O)c3cc(O)c(O)c(O)c3-c3c(cc(O)c(O)c3O)C(=O)O[C@@H]12)c1cc(O)c(O)c(O)c1 [Thonningianin A]
Z repl 1: -1.226
Z Repl 2: -0.652
av Z [1]: -0.939
av puncta (average of raw data 1 and 2): 8713.6
raw data 1 (puncta): 11629.9
raw data 2 (puncta): 5797.27

CC(=O)Oc1ccc(/C=C/c2cc(OC(C)=O)cc(OC(C)=O)c2)cc1 [Triacetylresveratrol]
Z repl 1: -0.969
Z Repl 2: -0.064
av Z [1]: -0.517
av puncta [3]: 13396.5
raw data 1 (puncta): 14710.4
raw data 2 (puncta): 12082.6

O=C(/C=C/c1ccc(O)cc1)OC[C@H]1O[C@@H](Oc2c(-c3ccc(O)cc3)oc3cc(O)cc(O)c3c2=O)[C@H](O)[C@@H](O)[C@@H]1O [Tribuloside]
Z repl 1: -0.731
Z Repl 2: -0.145
av Z [1]: -0.438
av puncta [3]: 14393.7
raw data 1 (raw puncta): 17568.8
raw data 2 (raw puncta): 11218.6

O=C(CCc1ccc(O)cc1)c1c(O)cc(O[C@@H]2O[C@H](CO)[C@@H](O)[C@H](O)[C@H]2O)cc1O [Trilobatin]
Z repl 1: 0.764
Z Repl 2: -0.24
av Z [4]: 0.262
av puncta (average of raw data 1 and 2): 22862
raw data 1 (puncta): 35522.1
raw data 2 (puncta): 10201.8

CC(C)c1ccc2c(c1O)CC[C@H]1C3=C(CC[C@]21C)C(=O)OC3 [Triptophenolide]
Z repl 1: 0.422
Z Repl 2: 0.028
av Z [4]: 0.225
av puncta (average of raw data 1 and 2): 22243.1
raw data 1 (puncta): 31418
raw data 2 (puncta): 13068.1

C[C@@H]1O[C@@H](OC[C@H]2O[C@@H](Oc3c(-c4ccc(OCCO)c(OCCO)c4)oc4cc(OCCO)cc(O)c4c3=O)[C@H](O)[C@@H](O)[C@@H]2O)[C@H](O)[C@H](O)[C@H]1O [Troxerutin]
Z repl 1: -0.342
Z Repl 2: -0.568
av Z [1]: -0.455
av puncta [3]: 14474.7
raw data 1 (puncta): 22246.4
raw data 2 (puncta): 6703.04

COc1cc(-c2oc3cc(O)cc(O)c3c(=O)c2O[C@@H]2O[C@H](CO[C@@H]3O[C@@H](C)[C@H](O)[C@@H](O)[C@H]3O)[C@@H](O)[C@H](O)[C@H]2O[C@@H]2O[C@@H](C)[C@H](O)[C@@H](O)[C@H]2O)ccc1O [Typhaneoside]
Z repl 1: -0.172
Z Repl 2: -0.068
av Z [2]: -0.12
av puncta (average of raw data 1 and 2): 18163.3
raw data 1 (puncta): 24283.7
raw data 2 (puncta): 12042.9

NCCc1ccc(O)cc1 [Tyramine]
AvZ (average z score of seeding, SDs from the mean level of seeding): 0.07
Z repl 1: -0.244
Z Repl 2: 0.385
av puncta (average of raw data 1 and 2): 20147.8
raw data 1 (puncta): 23421.7
raw data 2 (puncta): 16873.8

OCCc1ccc(O)cc1 [Tyrosol]
AvZ (average z score of seeding, SDs from the mean level of seeding): 0.05
Z repl 1: -0.193
Z Repl 2: 0.294
av puncta (average of raw data 1 and 2): 19965.6
raw data 1 (puncta): 24027
raw data 2 (puncta): 15904.1

O=c1ccc2ccc(O)cc2o1 [Umbelliferone]
Z repl 1: -1.269
Z Repl 2: -0.533
av Z [1]: -0.901
av puncta (average of raw data 1 and 2): 9095.02
raw data 1 (puncta): 11115.4
raw data 2 (puncta): 7074.65

O=c1oc2cc(O)ccc2c2cc(O)c(O)cc12 [Urolithin C]
Z repl 1: -0.755
Z Repl 2: -0.316
av Z [1]: -0.535
av puncta [3]: 13342.4
raw data 1 (puncta): 17290
raw data 2 (puncta): 9394.79

CC(=O)c1c(O)c(C)c(O)c2c1OC1=CC(=O)C(C(C)=O)C(=O)C12C (stereo not shown) [Usnic acid]
Z repl 1: 1.459
Z Repl 2: 0.735
av Z (average Z score of the two replicates, tau biosensor seeding, MCE Phenols Library screen): 1.097
av puncta (average of raw data 1 and 2): 32238.5
raw data 1 (puncta): 43858.6
raw data 2 (puncta): 20618.4

COc1cc(CO)ccc1O [Vanillyl alcohol]
AvZ (average z score of seeding, SDs from the mean level of seeding): -0.269
Z repl 1: 0.198
Z Repl 2: -0.736
av puncta [3]: 16813.8
raw data 1 (raw puncta): 28727.3
raw data 2 (raw puncta): 4900.36
